The results in this text go back to patent US8269000B2, “Substituted pyrimidine and triazine compounds” (Gruenenthal GmbH, priority 2008, dated 2012).

One assay has as its target T1, rat B1R (Rattus norvegicus, UniProt P97583).
T1 construct: expressed in transfected cells; host or cells: CHO K1 cells
T1 sequence (P97583 1-337): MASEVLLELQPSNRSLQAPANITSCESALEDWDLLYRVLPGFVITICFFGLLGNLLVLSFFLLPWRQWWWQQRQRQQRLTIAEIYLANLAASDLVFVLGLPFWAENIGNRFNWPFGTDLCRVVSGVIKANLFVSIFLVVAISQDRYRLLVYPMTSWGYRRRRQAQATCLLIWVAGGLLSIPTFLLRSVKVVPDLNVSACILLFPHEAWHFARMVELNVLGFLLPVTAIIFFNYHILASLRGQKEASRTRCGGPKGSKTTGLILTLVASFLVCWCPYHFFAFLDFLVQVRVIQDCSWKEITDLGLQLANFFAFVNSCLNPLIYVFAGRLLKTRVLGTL
In words: FLIPR Ca2+ functional study on bradykinin receptor 1 (rB1R CHO K1 cells). The assay is classed as cell-based. Conditions: % inhibition rat B1R at 10 μM, 10 µM. In short, it runs like this:
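Antagonism was calculated as % of maximal inhibition of the Ca2+ rise triggered by agonist at EC80 (Lys-Des-Arg9-bradykinin for hB1R, Des-Arg9-bradykinin for rB1R), added 10-20 min after test compound (10 μM or serial dilutions for IC50) to Fluo-4-loaded transfected CHO K1 cells on FLIPR. Duplicates or triplicates, ≥2 independent runs.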
With `COc1cc(C)c(S(=O)(=O)N(C)CCOc2nccc(N(C)CCN3CCC(c4ccccc4)(N(C)C)CC3)n2)c(C)c1` [G_CC-098, N-[2-[4-[2-(4-dimethylamino-4-phenyl-piperidin-1-yl)-ethyl-methyl-amino]-pyrimidin-2-yl]oxy-ethyl]-4-methoxy-N,2,6-trimethyl-benzenesulfonic acid amide], the “% inh. (rat B1R) 10 μM” value turned out to be 79%.

Staying with this assay, now noted: CHO-K1, % inhibition rat B1R at 10 μM, read-out: % inh. (rat B1R) 10 μM.
`COc1cc(C)c(S(=O)(=O)N2CCCCC2COc2nccc(N3CCCC3Cc3ccccn3)n2)c(C)c1` (centres unmarked) [G_CC-081, 2-[[1-[(4-methoxy-2,6-dimethyl-phenyl)sulfonyl]-piperidin-2-yl]-methoxy]-4-[2-(pyridin-2-yl-methyl)-pyrrolidin-1-yl]-pyrimidine]: the inhibition at 10 µM was determined as 88%. As to `COc1cc(C)c(S(=O)(=O)N2CCCCC2COc2nccc(N3CCC(O)(c4ccccn4)CC3)n2)c(C)c1` (centres unmarked) [G_CC-082, 1-[2-[[1-[(4-methoxy-2,6-dimethyl-phenyl)sulfonyl]-piperidin-2-yl]-methoxy]-pyrimidin-4-yl]-4-pyridin-2-yl-piperidin-4-ol], the inhibition at 10 µM stood at 73%.

Consider `COc1cc(C)c(S(=O)(=O)N2CCC[C@H]2COc2nccc(N3CCC(O)(c4ccccn4)CC3)n2)c(C)c1` [G_CC-083, 1-[2-[[(2S)-1-[(4-methoxy-2,6-dimethyl-phenyl)sulfonyl]-pyrrolidin-2-yl]-methoxy]-pyrimidin-4-yl]-4-pyridin-2-yl-piperidin-4-ol], for which the inhibition at 10 µM is 62%. Turning to `COc1cc(C)c(S(=O)(=O)N2CCC[C@@H]2COc2nccc(N3CCCC3Cc3ccccn3)n2)c(C)c1` (stereo partly drawn) [G_CC-084, 2-[[(2R)-1-[(4-methoxy-2,6-dimethyl-phenyl)sulfonyl]-pyrrolidin-2-yl]-methoxy]-4-[2-(pyridin-2-yl-methyl)-pyrrolidin-1-yl]-pyrimidine], the inhibition at 10 µM stood at 83%. Consider `COc1cc(C)c(S(=O)(=O)N2CCC[C@H]2COc2nccc(N3CCC(c4nc(-c5ccncc5)no4)CC3)n2)c(C)c1` [G_CC-085, 5-[1-[2-[[(2S)-1-[(4-methoxy-2,6-dimethyl-phenyl)sulfonyl]-pyrrolidin-2-yl]-methoxy]-pyrimidin-4-yl]-piperidin-4-yl]-3-pyridin-4-yl-[1,2,4]oxadiazole], for which the inhibition at 10 µM was 101%.

On to `COc1cc(C)c(S(=O)(=O)N2CCC[C@H]2COc2nccc(N3CCC(OCCN4CCCC4)(c4cccc(F)c4)CC3)n2)c(C)c1` [G_CC-086, 4-[4-(3-fluorophenyl)-4-(2-pyrrolidin-1-yl-ethoxy)-piperidin-1-yl]-2-[[(2S)-1-[(4-methoxy-2,6-dimethyl-phenyl)sulfonyl]-pyrrolidin-2-yl]-methoxy]-pyrimidine], for which the inhibition at 10 µM is 105%. For `CCCCC1(N(C)C)CCN(c2ccnc(OC[C@@H]3CCCN3S(=O)(=O)c3c(C)cc(OC)cc3C)n2)CC1` [G_CC-087, [4-butyl-1-[2-[[(2S)-1-[(4-methoxy-2,6-dimethyl-phenyl)sulfonyl]-pyrrolidin-2-yl]-methoxy]-pyrimidin-4-yl]-piperidin-4-yl]-dimethyl-amine], the inhibition at 10 µM amounted to 101%. `COc1cc(C)c(S(=O)(=O)N2CCC[C@H]2COc2nccc(N(C)CCN3CCC(c4ccccc4)(N(C)C)CC3)n2)c(C)c1` [G_CC-088, 2-(4-dimethylamino-4-phenyl-piperidin-1-yl)-ethyl-[2-[[(2S)-1-[(4-methoxy-2,6-dimethyl-phenyl)sulfonyl]-pyrrolidin-2-yl]-methoxy]-pyrimidin-4-yl]-methyl-amine]: the inhibition at 10 µM is 100%. Consider `CCCCC1(N(C)C)CCN(c2ccnc(OCCN(C)S(=O)(=O)c3c(C)cc(OC)cc3C)n2)CC1` [G_CC-089, N-[2-[4-(4-butyl-4-dimethylamino-piperidin-1-yl)-pyrimidin-2-yl]oxy-ethyl]-4-methoxy-N,2,6-trimethyl-benzenesulfonic acid amide], for which the inhibition at 10 µM is 93%. Still for that read-out and setting: to `COc1cc(C)c(S(=O)(=O)N2CCC[C@H]2COc2nccc(N(C)CCN3CCC(c4ccccc4)(N4CCCC4)CC3)n2)c(C)c1` [G_CC-091, [2-[[(2S)-1-[(4-methoxy-2,6-dimethyl-phenyl)sulfonyl]-pyrrolidin-2-yl]-methoxy]-pyrimidin-4-yl]-methyl-[2-(4-phenyl-4-pyrrolidin-1-yl-piperidin-1-yl)-ethyl]-amine] belongs 101%. On to `COc1cc(C)c(S(=O)(=O)N2c3ccccc3C[C@H]2COc2nccc(N3CCC(Oc4cnccn4)CC3)n2)c(C)c1` [G_CC-092, (2S)-1-[(4-methoxy-2,6-dimethyl-phenyl)sulfonyl]-2-[[4-(4-pyrazin-2-yloxy-piperidin-1-yl)-pyrimidin-2-yl]oxy-methyl]-2,3-dihydro-1H-indole], for which the inhibition at 10 µM worked out at 85%. As for `CCCCC1(N(C)C)CCN(c2ccnc(OC[C@@H]3Cc4ccccc4N3S(=O)(=O)c3c(C)cc(OC)cc3C)n2)CC1` [G_CC-093, [4-butyl-1-[2-[[(2S)-1-[(4-methoxy-2,6-dimethyl-phenyl)sulfonyl]-2,3-dihydro-1H-indol-2-yl]-methoxy]-pyrimidin-4-yl]-piperidin-4-yl]-dimethyl-amine], the inhibition at 10 µM amounted to 91%. For the compound `COc1cc(C)c(S(=O)(=O)N2c3ccccc3C[C@H]2COc2nccc(N(C)CCN3CCC(c4ccccc4)(N(C)C)CC3)n2)c(C)c1` [G_CC-094, 2-(4-dimethylamino-4-phenyl-piperidin-1-yl)-ethyl-[2-[[(2S)-1-[(4-methoxy-2,6-dimethyl-phenyl)sulfonyl]-2,3-dihydro-1H-indol-2-yl]-methoxy]-pyrimidin-4-yl]-methyl-amine], the inhibition at 10 µM was 102%. Consider `COc1cc(C)c(S(=O)(=O)N2c3ccccc3C[C@H]2COc2nccc(N(C)CCN3CCC(c4ccccc4)(N4CCCC4)CC3)n2)c(C)c1` [G_CC-096, [2-[[(2S)-1-[(4-methoxy-2,6-dimethyl-phenyl)sulfonyl]-2,3-dihydro-1H-indol-2-yl]-methoxy]-pyrimidin-4-yl]-methyl-[2-(4-phenyl-4-pyrrolidin-1-yl-piperidin-1-yl)-ethyl]-amine], for which the inhibition at 10 µM stood at 101%. For the compound `CCCCC1(N(C)C)CCN(CCN(C)c2ccnc(OC[C@@H]3Cc4ccccc4N3S(=O)(=O)c3c(C)cc(OC)cc3C)n2)CC1` [G_CC-097, 2-(4-butyl-4-dimethylamino-piperidin-1-yl)-ethyl-[2-[[(2S)-1-[(4-methoxy-2,6-dimethyl-phenyl)sulfonyl]-2,3-dihydro-1H-indol-2-yl]-methoxy]-pyrimidin-4-yl]-methyl-amine], the inhibition at 10 µM is 101%. On the same count and under the same terms, the value for `COc1cc(C)c(S(=O)(=O)N(C)CCOc2nccc(N(C)CCCN3CCC(c4ccccc4)(N(C)C)CC3)n2)c(C)c1` [G_CC-100, N-[2-[4-[3-(4-dimethylamino-4-phenyl-piperidin-1-yl)-propyl-methyl-amino]-pyrimidin-2-yl]oxy-ethyl]-4-methoxy-N,2,6-trimethyl-benzenesulfonic acid amide] was 89%; that for `COc1cc(C)c(S(=O)(=O)N2CCCCC2COc2nccc(N(C)CCCN3CCC(c4ccccc4)(N(C)C)CC3)n2)c(C)c1` (centres unmarked) [G_CC-101, 3-(4-dimethylamino-4-phenyl-piperidin-1-yl)-propyl-[2-[[1-[(4-methoxy-2,6-dimethyl-phenyl)sulfonyl]-piperidin-2-yl]-methoxy]-pyrimidin-4-yl]-methyl-amine] was 105%.

`COc1cc(C)c(S(=O)(=O)N2CCCCC2COc2nccc(N3CCC(c4nc(-c5ccncc5)no4)CC3)n2)c(C)c1` (centres unmarked) [G_CC-103, 5-[1-[2-[[1-[(4-methoxy-2,6-dimethyl-phenyl)sulfonyl]-piperidin-2-yl]-methoxy]-pyrimidin-4-yl]-piperidin-4-yl]-3-pyridin-4-yl-[1,2,4]oxadiazole]: the inhibition at 10 µM turned out to be 93%. `COc1cc(C)c(S(=O)(=O)N2CCCCC2COc2nccc(N3CCC(c4cccc(F)c4)(N4CCN(C)CC4)CC3)n2)c(C)c1` (centres unmarked) [G_CC-104, 4-[4-(3-fluorophenyl)-4-(4-methyl-piperazin-1-yl)-piperidin-1-yl]-2-[[1-[(4-methoxy-2,6-dimethyl-phenyl)sulfonyl]-piperidin-2-yl]-methoxy]-pyrimidine]: the inhibition at 10 µM is 101%. On the same count and under the same terms, to `COc1cc(C)c(S(=O)(=O)N2CCCCC2COc2nccc(N3[C@@H]4CC[C@H]3CC(Oc3cccnc3)C4)n2)c(C)c1` (stereo partly drawn) [G_CC-105, (1S,5R)-8-[2-[[1-[(4-methoxy-2,6-dimethyl-phenyl)sulfonyl]-piperidin-2-yl]-methoxy]-pyrimidin-4-yl]-3-pyridin-3-yloxy-8-azabicyclo[3.2.1]octane] belongs 101%; to `COc1cc(C)c(S(=O)(=O)N2CCCCC2COc2nccc(N(C)CCN3CCC(O)(c4cccnc4)CC3)n2)c(C)c1` (centres unmarked) [G_CC-106, 1-[2-[[2-[[1-[(4-methoxy-2,6-dimethyl-phenyl)sulfonyl]-piperidin-2-yl]-methoxy]-pyrimidin-4-yl]-methyl-amino]ethyl]-4-pyridin-3-yl-piperidin-4-ol], 95%; to `COc1cc(C)c(S(=O)(=O)N(C)C(COc2nccc(N3[C@@H]4CC[C@H]3CC(Oc3cccnc3)C4)n2)c2ccccc2)c(C)c1` (stereo partly drawn) [G_CC-107, 4-methoxy-N,2,6-trimethyl-N-[1-phenyl-2-[4-[(1S,5R)-3-pyridin-3-yloxy-8-azabicyclo[3.2.1]octan-8-yl]-pyrimidin-2-yl]oxy-ethyl]-benzenesulfonic acid amide], 94%.
